Measured values as given in ChEMBL document CHEMBL5375992, “Design and Development of IKZF2 and CK1α Dual Degraders” (J Med Chem, 2023).
In brackets after ≈: the same amount, converted by molar mass. Activity calls are given as the source filed them. The calls are words filed in the database; no cut-off is given here.

Legend:
[1] = molecular target: T1, Cereblon/Ikaros (Homo sapiens) (UniProt Q96SW2+Q13422); assay: Protac activity at CRBN/IKZF1 in human MOLM-13 cells at 25 uM incubated for 24 hrs by Western blotting analysis relative to control; format: cell-based
[2] = molecular target: T2, Protein cereblon/Zinc finger protein Helios (Homo sapiens) (UniProt Q96SW2+Q9UKS7); assay: Protac activity at CRBN/IKZF2 in human MOLM-13 cells at 25 uM incubated for 24 hrs by Western blotting analysis relative to control; format: cell-based
[3] = molecular target: T1, Cereblon/Ikaros (Homo sapiens); assay: Protac activity at CRBN/IKZF1 (unknown origin) transfected in HEK293T cells at 100 nM incubated for 24 hrs by flow cytometry analysis relative to control; format: cell-based
[4] = molecular target: T2, Protein cereblon/Zinc finger protein Helios (Homo sapiens); assay: Protac activity at CRBN/IKZF2 (unknown origin) transfected in HEK293T cells at 100 nM incubated for 24 hrs by flow cytometry analysis relative to control; format: cell-based
[5] = molecular target: Cereblon/Casein kinase I alpha (Homo sapiens) (UniProt P48729+Q96SW2); assay: Protac activity at CRBN/CK1alpha (unknown origin) transfected in HEK293T cells at 100 nM incubated for 24 hrs by flow cytometry analysis relative to control; format: cell-based
[6] = molecular target: Protein cereblon/Eukaryotic peptide chain release factor GTP-binding subunit ERF3A (Homo sapiens) (UniProt Q96SW2+P15170); assay: Protac activity at CRBN/GSPT1 (unknown origin) transfected in HEK293T cells at 100 nM incubated for 24 hrs by flow cytometry analysis relative to control; format: cell-based
[7] = Solubility of compound in DMSO; format: physicochemical; conditions: DMSO; read-out: solubility
[8] = molecular target: T2, Protein cereblon/Zinc finger protein Helios (Homo sapiens); assay: Protac activity at CRBN/IKZF2 in human MOLM-13 cells assessed as relative ratio at 25 uM incubated for 24 hrs by Western blotting analysis relative to DMSO; format: cell-based
[9] = molecular target: T1, Cereblon/Ikaros (Homo sapiens); assay: Protac activity at CRBN/IKZF1 in human MOLM-13 cells assessed as relative ratio at 25 uM incubated for 24 hrs by Western blotting analysis relative to DMSO; format: cell-based
[10] = Metabolic stability in mouse liver microsomes assessed as half life preincubated with NADPH and UDPGA for 5 mins followed by compound addition and measured upto 60 mins by LC-MS/MS analysis; format: ADME, Microsome
[11] = Metabolic stability in mouse liver microsomes assessed as intrinsic clearance preincubated with NADPH and UDPGA for 5 mins followed by compound addition and measured upto 60 mins by LC-MS/MS analysis; format: ADME, Microsome; conditions: read-out: CLH

Cereblon/Casein kinase I alpha (Homo sapiens), sequence (P48729 2-337 limits assumed): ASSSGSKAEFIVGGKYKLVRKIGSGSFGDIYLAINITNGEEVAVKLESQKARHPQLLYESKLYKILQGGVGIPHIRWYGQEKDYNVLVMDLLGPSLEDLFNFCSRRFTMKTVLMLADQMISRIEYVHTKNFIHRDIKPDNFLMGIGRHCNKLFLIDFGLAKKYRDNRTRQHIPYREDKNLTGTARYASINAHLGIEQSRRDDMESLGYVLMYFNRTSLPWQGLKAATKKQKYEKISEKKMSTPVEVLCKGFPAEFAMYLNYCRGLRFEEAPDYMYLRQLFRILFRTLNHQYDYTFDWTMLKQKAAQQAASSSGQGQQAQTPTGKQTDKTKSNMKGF
Cereblon/Casein kinase I alpha (Homo sapiens), sequence (Q96SW2 whole entry partner): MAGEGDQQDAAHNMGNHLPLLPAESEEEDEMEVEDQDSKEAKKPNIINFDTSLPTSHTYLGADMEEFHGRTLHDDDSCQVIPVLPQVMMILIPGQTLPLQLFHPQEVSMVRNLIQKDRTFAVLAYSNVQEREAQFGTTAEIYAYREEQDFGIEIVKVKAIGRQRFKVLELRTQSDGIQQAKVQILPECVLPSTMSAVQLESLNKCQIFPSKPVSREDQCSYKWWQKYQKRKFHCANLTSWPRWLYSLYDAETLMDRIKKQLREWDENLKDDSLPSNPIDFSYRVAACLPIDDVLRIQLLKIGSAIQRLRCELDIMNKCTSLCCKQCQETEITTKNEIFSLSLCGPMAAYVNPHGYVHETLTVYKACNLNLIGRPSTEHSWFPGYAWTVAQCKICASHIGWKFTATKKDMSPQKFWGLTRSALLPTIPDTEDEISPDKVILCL
Protein cereblon/Eukaryotic peptide chain release factor GTP-binding subunit ERF3A (Homo sapiens), sequence (P15170 whole entry, looked up): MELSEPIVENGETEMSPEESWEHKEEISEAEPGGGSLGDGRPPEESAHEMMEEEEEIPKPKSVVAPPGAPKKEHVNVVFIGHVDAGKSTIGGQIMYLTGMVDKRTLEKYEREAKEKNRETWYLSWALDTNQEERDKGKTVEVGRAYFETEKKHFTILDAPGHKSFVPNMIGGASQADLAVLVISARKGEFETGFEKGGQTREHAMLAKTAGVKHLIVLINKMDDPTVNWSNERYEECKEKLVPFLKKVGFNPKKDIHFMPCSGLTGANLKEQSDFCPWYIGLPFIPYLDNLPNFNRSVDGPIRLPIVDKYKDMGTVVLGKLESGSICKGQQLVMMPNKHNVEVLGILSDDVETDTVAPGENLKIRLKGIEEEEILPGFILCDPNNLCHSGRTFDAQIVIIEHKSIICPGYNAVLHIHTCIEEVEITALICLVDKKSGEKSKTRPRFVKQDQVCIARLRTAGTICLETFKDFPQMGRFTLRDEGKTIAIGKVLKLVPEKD
Protein cereblon/Eukaryotic peptide chain release factor GTP-binding subunit ERF3A (Homo sapiens), sequence (Q96SW2 whole entry, looked up): as the sequence (Q96SW2 whole entry partner) above
T2 sequence (Q96SW2 whole entry, looked up): as the sequence (Q96SW2 whole entry partner) above
T2 sequence (Q9UKS7 whole entry, looked up): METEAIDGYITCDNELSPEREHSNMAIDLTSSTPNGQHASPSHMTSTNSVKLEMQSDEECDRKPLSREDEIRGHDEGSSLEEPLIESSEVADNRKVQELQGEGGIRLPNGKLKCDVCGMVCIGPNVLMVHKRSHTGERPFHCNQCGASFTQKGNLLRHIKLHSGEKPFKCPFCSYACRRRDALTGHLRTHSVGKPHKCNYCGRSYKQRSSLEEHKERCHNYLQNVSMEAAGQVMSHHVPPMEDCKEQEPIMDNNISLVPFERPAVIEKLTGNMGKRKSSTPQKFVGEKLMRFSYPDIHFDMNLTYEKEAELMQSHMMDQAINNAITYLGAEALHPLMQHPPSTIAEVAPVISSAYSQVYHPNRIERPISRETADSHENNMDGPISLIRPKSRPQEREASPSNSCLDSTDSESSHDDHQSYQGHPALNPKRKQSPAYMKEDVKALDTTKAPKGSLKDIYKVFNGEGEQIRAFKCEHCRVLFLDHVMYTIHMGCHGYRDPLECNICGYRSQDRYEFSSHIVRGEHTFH

Structure (SMILES)	Activity [1]	Activity [3] [%]	Activity [4] [%]	Activity [5] [%]	Activity [6] [%]	Ratio [8]	Ratio [9]	also measured
COc1cc(CNc2ccc3c(c2)CN(C2CCC(=O)NC2=O)C3=O)cc2ccccc12 (configuration not stated)	Active	–	–	–	–	–	–	Activity [2]: inactive
O=C1CCC(N2Cc3cc(NC(=O)c4ccc5occc5c4)ccc3C2=O)C(=O)N1 (configuration not stated)	–	6	81	50	2	–	–	–
COc1ccc2ccc(CNc3ccc4c(c3)CN(C3CCC(=O)NC3=O)C4=O)cc2c1 (configuration not stated)	Active	–	–	–	–	–	–	Activity [2]: inactive
O=C1CCC(N2Cc3cc(NC(=O)C4=Cc5ccc(Br)cc5OC4)ccc3C2=O)C(=O)N1 (configuration not stated)	–	13	80	62	22	–	–	solubility [7]: 50 mM (≈ 24.8 mg/mL)
O=C1CCC(N2Cc3cc(NC(=O)C4=Cc5ccc(OC(F)(F)F)cc5OC4)ccc3C2=O)C(=O)N1 (configuration not stated)	–	11	85	66	6	–	–	solubility [7]: 50 mM (≈ 25.1 mg/mL)
O=C1CCC(N2Cc3cc(NCc4cc5ccccc5o4)ccc3C2=O)C(=O)N1 (configuration not stated)	–	–	–	–	–	0.76	0.13	–
O=C1CCC(N2Cc3cc(NC(=O)C4=Cc5cc(Br)cc(Br)c5OC4)ccc3C2=O)C(=O)N1 (configuration not stated)	–	12	49	47	5	–	–	solubility [7]: 50 mM (≈ 28.8 mg/mL)
O=C1CCC(N2Cc3cc(NCc4cccc5ccccc45)ccc3C2=O)C(=O)N1 (configuration not stated)	–	–	–	–	–	0.83	0.66	–
O=C1CCC(N2Cc3cc(NCc4cccc(Oc5ccccc5)c4)ccc3C2=O)C(=O)N1 (configuration not stated)	–	–	–	–	–	0.79	0.14	–
COc1cc2ccc(C(=O)Nc3ccc4c(c3)CN(C3CCC(=O)NC3=O)C4=O)cc2cn1 (configuration not stated)	–	–	88	72	–	–	–	–
O=C1CCC(N2Cc3cc(NCc4cccc5cnccc45)ccc3C2=O)C(=O)N1 (configuration not stated)	Active	–	–	–	–	–	–	–
O=C1CCC(N2Cc3cc(NC(=O)Cc4cccc5ccccc45)ccc3C2=O)C(=O)N1 (configuration not stated)	–	97	93	64	25	–	–	–
O=C1CCC(N2Cc3cc(NCc4cc5ccccc5cn4)ccc3C2=O)C(=O)N1 (configuration not stated)	Active	–	–	–	–	–	–	–
O=C1CCC(N2Cc3cc(NCc4ccccc4)ccc3C2=O)C(=O)N1 (configuration not stated)	–	–	–	–	–	1.04	0.59	–
O=C1CCC(N2Cc3cc(NCc4ccc5oc6ccccc6c5c4)ccc3C2=O)C(=O)N1 (configuration not stated)	–	–	–	–	–	0.19	0.08	Activity [2]: Active
O=C1CCC(N2Cc3cc(NCc4ccc5cc(F)ccc5c4)ccc3C2=O)C(=O)N1 (configuration not stated)	Active	–	–	–	–	–	–	Activity [2]: Active
O=C1CCC(N2Cc3cc(NCc4ccc5ccccc5n4)ccc3C2=O)C(=O)N1 (configuration not stated)	Active	–	–	–	–	–	–	–
O=C1CCC(N2Cc3cc(NCc4ccc5ccccc5c4)ccc3C2=O)C(=O)N1 (configuration not stated)	–	–	–	–	–	0.36	0.15	Activity [2]: Active
O=C1CCC(N2Cc3cc(NC(=O)c4cccc(C(=O)c5ccccc5)c4)ccc3C2=O)C(=O)N1 (configuration not stated)	–	60	83	64	9	–	–	–
O=C1CCC(N2Cc3cc(NC(=O)c4ccc5cc(O)ccc5c4)ccc3C2=O)C(=O)N1 (configuration not stated)	–	–	60	55	–	–	–	–
O=C1CCC(N2C(=O)c3ccc(NCc4ccc5ccccc5c4)cc3C2=O)C(=O)N1 (configuration not stated)	inactive	–	–	–	–	1.45	0.09	Activity [2]: Active
O=C1CCC(N2Cc3cc(NC(=O)c4ccc5c(c4)OCO5)ccc3C2=O)C(=O)N1 (configuration not stated)	–	7	49	36	5	–	–	–
O=C1CCC(N2Cc3cc(NCc4ccc5ncccc5c4)ccc3C2=O)C(=O)N1 (configuration not stated)	Active	–	–	–	–	–	–	–

Structure (SMILES)	Activity [1]	Activity [3] [%]	Activity [4] [%]	Activity [5] [%]	Activity [6] [%]	Ratio [8]	Ratio [9]	also measured
O=C1CCC(N2Cc3cc(NCc4ccc5c6c4CC=C4C=CC=C(C=C5)C46)ccc3C2=O)C(=O)N1 (configuration not stated)	–	–	–	–	–	0.95	0.39	–
COc1ccc2cc(CNc3ccc4c(c3)CN(C3CCC(=O)NC3=O)C4=O)ccc2c1 (configuration not stated)	Active	–	–	–	–	0.43	0.64	Activity [2]: Active
O=C1CCC(N2Cc3cc(NC(=O)c4ccc5ncsc5c4)ccc3C2=O)C(=O)N1 (configuration not stated)	–	3	42	33	0	–	–	–
COc1cc2c(OC)cccc2cc1CNc1ccc2c(c1)CN(C1CCC(=O)NC1=O)C2=O (configuration not stated)	–	–	–	–	–	–	–	Activity [2]: Active
O=C(/C=C/c1ccccc1)Nc1ccc2c(c1)CN(C1CCC(=O)NC1=O)C2=O (configuration not stated)	–	13	71	60	8	–	–	–
O=C1CCC(N2Cc3cc(NCc4cccc(OCc5ccccc5)c4)ccc3C2=O)C(=O)N1 (configuration not stated)	–	–	–	–	–	0.66	0.04	–
O=C1CCC(N2Cc3cc(NC(=O)c4ccc(Oc5ccccc5)cc4)ccc3C2=O)C(=O)N1 (configuration not stated)	–	5	78	61	10	–	–	–
O=C1CCC(N2Cc3cc(NC(=O)c4cccc(Oc5ccccc5)c4)ccc3C2=O)C(=O)N1 (configuration not stated)	–	62	74	58	9	–	–	–
O=C1CCC(N2Cc3cc(NC(=O)c4ccc5c(c4)OCCO5)ccc3C2=O)C(=O)N1 (configuration not stated)	–	9	38	36	5	–	–	–
CN(C)c1ccc2cc(CNc3ccc4c(c3)CN(C3CCC(=O)NC3=O)C4=O)ccc2c1 (configuration not stated)	Active	–	–	–	–	0.74	0.65	Activity [2]: Active
O=C1CCC(N2Cc3cc(NC(=O)C4=COc5ccccc5O4)ccc3C2=O)C(=O)N1 (configuration not stated)	–	13	81	46	0	–	–	–
O=C1CCC(N2Cc3cc(NCc4ccc5ccncc5c4)ccc3C2=O)C(=O)N1 (configuration not stated)	Active	–	–	–	–	–	–	–
COc1cnc2cc(C(=O)Nc3ccc4c(c3)CN(C3CCC(=O)NC3=O)C4=O)ccc2c1 (configuration not stated)	–	–	62	64	–	–	–	half-life [10]: > 4.25 h; microsomal CLint [11]: < 5.4 µL/min/mg
O=C1CCC(N2Cc3cc(NCc4ccc5c(c4)oc4ccccc45)ccc3C2=O)C(=O)N1 (configuration not stated)	Active	–	–	–	–	0.94	0.24	Activity [2]: Active
COc1cccc2ccc(CNc3ccc4c(c3)CN(C3CCC(=O)NC3=O)C4=O)cc12 (configuration not stated)	Active	–	–	–	–	–	–	Activity [2]: inactive
O=C1CCC(N2Cc3cc(NC(=O)C4=Cc5ccccc5OC4)ccc3C2=O)C(=O)N1 (configuration not stated)	–	15	84	66	11	–	–	–
CC(=O)Nc1ccc2c(c1)CN(C1CCC(=O)NC1=O)C2=O (configuration not stated)	–	4	17	12	10	–	–	–
O=C1CCC(N2Cc3cc(NC(=O)c4ccc5c(c4)CCCC5)ccc3C2=O)C(=O)N1 (configuration not stated)	–	16	74	51	1	–	–	–
O=C1CCC(N2Cc3cc(NCc4ccc5cc(O)ccc5c4)ccc3C2=O)C(=O)N1 (configuration not stated)	–	–	–	–	–	0.84	0.54	–
O=C1CCC(N2Cc3cc(NCc4ccc5cc(Br)ccc5c4)ccc3C2=O)C(=O)N1 (configuration not stated)	–	–	–	–	–	1.41	0.73	–
O=C1CCC(N2Cc3cc(NCc4cccc5c4oc4ccccc45)ccc3C2=O)C(=O)N1 (configuration not stated)	Active	–	–	–	–	0.84	0.32	Activity [2]: Active
O=C1CCC(N2Cc3cc(NCCc4ccc5ccccc5c4)ccc3C2=O)C(=O)N1 (configuration not stated)	Active	–	–	–	–	1.51	0.26	Activity [2]: inactive
COc1ccc(CNc2ccc3c(c2)CN(C2CCC(=O)NC2=O)C3=O)cc1 (configuration not stated)	–	–	–	–	–	0.65	0.48	–
